From ChEMBL document CHEMBL3400018, “One-pot catalyst free synthesis of novel kojic acid tagged 2-aryl/alkyl substituted-4H-chromenes and evaluation of their antimicrobial and anti-biofilm activities” (Bioorg Med Chem Lett, 2015)
Converted amounts (≈) assume the structure as drawn. The source made the active and inactive calls. No cut-off for these calls is given here.

Key:
Bacillus subtilis [1] = assay: Antimicrobial activity against Bacillus subtilis MTCC 121 assessed as inhibition of biofilm formation after 24 hrs; assay type: functional, organism-based; details: MTCC 121, 24 h
Staphylococcus aureus [2] = assay: Antimicrobial activity against Staphylococcus aureus MLS-16 MTCC 2940 assessed as inhibition of biofilm formation after 24 hrs; assay type: functional, organism-based; details: MLS-16, 24 h
Escherichia coli [3] = assay: Bactericidal activity against Escherichia coli MTCC 739 after 24 hrs by Mueller Hinton agar plate assay; assay type: functional; details: MTCC 739, 24 h
Staphylococcus aureus [4] = assay: Antimicrobial activity against Staphylococcus aureus MLS-16 MTCC 2940 after 24 hrs by well diffusion method; assay type: functional; details: MLS-16 MTCC 2940, 24 h
Escherichia coli [5] = assay: Antimicrobial activity against Escherichia coli MTCC 739 after 24 hrs by well diffusion method; assay type: functional; details: MTCC 739, 24 h
Bacillus subtilis [6] = assay: Antimicrobial activity against Bacillus subtilis MTCC 121 after 24 hrs by well diffusion method; assay type: functional; details: MTCC 121, 24 h
Candida albicans = assay: Antimicrobial activity against Candida albicans MTCC 3017 after 24 hrs by well diffusion method; assay type: functional, organism-based
Raoultella planticola = assay: Antimicrobial activity against Klebsiella planticola MTCC 530 after 24 hrs by well diffusion method; assay type: functional; details: MTCC 530, 24 h
Micrococcus luteus = assay: Antimicrobial activity against Micrococcus luteus MTCC 2470 after 24 hrs by well diffusion method; assay type: functional; details: MTCC 2470, 24 h
Staphylococcus aureus [7] = assay: Bactericidal activity against Staphylococcus aureus MLS-16 MTCC 2940 after 24 hrs by Mueller Hinton agar plate assay; assay type: functional; details: MLS-16, 24 h
Pseudomonas aeruginosa = assay: Antimicrobial activity against Pseudomonas aeruginosa MTCC 2453 after 24 hrs by well diffusion method; assay type: functional; details: MTCC 2453, 24 h
Bacillus subtilis [8] = assay: Bactericidal activity against Bacillus subtilis MTCC 121 after 24 hrs by Mueller Hinton agar plate assay; assay type: functional; details: MTCC 121, 24 h
Escherichia coli [9] = assay: Antimicrobial activity against Escherichia coli MTCC 739 assessed as inhibition of biofilm formation after 24 hrs; assay type: functional, organism-based; details: MTCC 739, 24 h

| SMILES | IC50 (Bacillus subtilis [1]) [mg/L] | IC50 (Staphylococcus aureus [2]) [mg/L] | MIC (Staphylococcus aureus [4]) [mg/L] | MIC (Escherichia coli [5]) [mg/L] | MIC (Bacillus subtilis [6]) [mg/L] | MIC (Candida albicans) | MIC (Micrococcus luteus) [mg/L] | MIC (Pseudomonas aeruginosa) [mg/L] | IC50 (Escherichia coli [9]) [mg/L] | MBC (Escherichia coli [3]) [mg/L] | MIC (Raoultella planticola) [mg/L] | MBC (Staphylococcus aureus [7]) [mg/L] | MBC (Bacillus subtilis [8]) [mg/L] |
| --- | --- | --- | --- | --- | --- | --- | --- | --- | --- | --- | --- | --- | --- |
| O=c1cc(CO)oc(C2C=C(c3ccc4c(c3)OCO4)Oc3ccccc32)c1O (stereo unspecified) | 8.1 (≈ 20.6 µM) | > 125 | > 125 | 15.6 (≈ 39.8 µM) | 7.8 (≈ 19.9 µM) | inactive | > 125 | > 125 | 17.8 (≈ 45.4 µM) | 31.2 (≈ 79.5 µM) | > 125 | > 125 | 15.6 (≈ 39.8 µM) |
| O=C(O)c1cn(C2CC2)c2cc(N3CCNCC3)c(F)cc2c1=O [CIPROFLOXACIN] | – | – | 0.9 (≈ 2.72 µM) | 0.9 (≈ 2.72 µM) | 0.9 (≈ 2.72 µM) | inactive | 0.9 (≈ 2.72 µM) | 0.9 (≈ 2.72 µM) | – | 1.9 (≈ 5.73 µM) | 0.9 (≈ 2.72 µM) | 1.9 (≈ 5.73 µM) | 0.9 (≈ 2.72 µM) |
| O=c1cc(CO)oc(C2C=C(c3cc(F)cc(F)c3)Oc3ccccc32)c1O (stereo unspecified) | – | – | > 125 | > 125 | > 125 | inactive | > 125 | > 125 | – | – | > 125 | – | – |
| O=c1cc(CO)oc(C2C=C(c3cccs3)Oc3ccccc32)c1O (stereo unspecified) | 4.6 (≈ 13 µM) | 8.8 (≈ 24.8 µM) | 7.8 (≈ 22 µM) | 15.6 (≈ 44 µM) | 7.8 (≈ 22 µM) | inactive | > 125 | > 125 | 18.2 (≈ 51.4 µM) | 31.2 (≈ 88 µM) | > 125 | 15.6 (≈ 44 µM) | 7.8 (≈ 22 µM) |
| CC(C)CC1=CC(c2oc(CO)cc(=O)c2O)c2ccccc2O1 (stereo unspecified) | 11.3 (≈ 34.4 µM) | 9.2 (≈ 28 µM) | 7.8 (≈ 23.8 µM) | > 125 | 7.8 (≈ 23.8 µM) | inactive | > 125 | > 125 | > 125 | > 125 | > 125 | 15.6 (≈ 47.5 µM) | 15.6 (≈ 47.5 µM) |

More lines, main results first:

| IC50 (Bacillus subtilis [1]) [mg/L] | IC50 (Staphylococcus aureus [2]) [mg/L] | MIC (Staphylococcus aureus [4]) [mg/L] | MIC (Escherichia coli [5]) [mg/L] | MIC (Bacillus subtilis [6]) [mg/L] | MIC (Candida albicans) | MIC (Micrococcus luteus) [mg/L] | MIC (Pseudomonas aeruginosa) [mg/L] | IC50 (Escherichia coli [9]) [mg/L] | SMILES | MBC (Escherichia coli [3]) [mg/L] | MIC (Raoultella planticola) [mg/L] | MBC (Staphylococcus aureus [7]) [mg/L] | MBC (Bacillus subtilis [8]) [mg/L] |
| --- | --- | --- | --- | --- | --- | --- | --- | --- | --- | --- | --- | --- | --- |
| – | – | > 125 | > 125 | > 125 | inactive | > 125 | > 125 | – | O=c1cc(CO)oc(C2C=C(c3ccccc3)Oc3c(Cl)cc(Br)cc32)c1O (stereo unspecified) | – | > 125 | – | – |
| – | – | > 125 | > 125 | > 125 | inactive | > 125 | > 125 | – | O=c1cc(CO)oc(C2C=C(c3ccccc3)Oc3ccc(Br)cc32)c1O (stereo unspecified) | – | > 125 | – | – |
| 3.4 (≈ 9.76 µM) | 8.3 (≈ 23.8 µM) | 7.8 (≈ 22.4 µM) | 7.8 (≈ 22.4 µM) | 3.9 (≈ 11.2 µM) | inactive | > 125 | > 125 | 5.2 (≈ 14.9 µM) | O=c1cc(CO)oc(C2C=C(c3ccccc3)Oc3ccccc32)c1O (stereo unspecified) | 7.8 (≈ 22.4 µM) | > 125 | 15.6 (≈ 44.8 µM) | 7.8 (≈ 22.4 µM) |
| 10.2 (≈ 27 µM) | 15.4 (≈ 40.7 µM) | 15.6 (≈ 41.2 µM) | 7.8 (≈ 20.6 µM) | 7.8 (≈ 20.6 µM) | inactive | > 125 | > 125 | 6.1 (≈ 16.1 µM) | COc1ccc(C2=CC(c3oc(CO)cc(=O)c3O)c3ccccc3O2)cc1 (stereo unspecified) | 7.8 (≈ 20.6 µM) | > 125 | 31.2 (≈ 82.5 µM) | 15.6 (≈ 41.2 µM) |
